Source: paper PMC6225212, “Synthesis and Pharmacological Evaluation of Novel Silodosin-Based Arylsulfonamide Derivatives as α1A/α1D-Adrenergic Receptor Antagonist with Potential Uroselective Profile” (Molecules : A Journal of Synthetic Chemistry and Natural …, 2018)
pEC50, pIC50: −log10 of the molar value. “Also recorded” adds a separate entry of the source.

What was measured:
α1A-ARs = molecular target: T1, α1A-ARs (Homo sapiens, UniProt P35348); assay: Intrinsic activity at α1A-ARs, β-lactamase reporter gene, FRET substrate; type: cell-based; design: key to α1A Profile: ANT—antagonist; AGO—agonist; settings: for pIC50: antagonist mode, three independent experiments; for α1A Profile: functional profile
T1 sequence (P35348 1-466): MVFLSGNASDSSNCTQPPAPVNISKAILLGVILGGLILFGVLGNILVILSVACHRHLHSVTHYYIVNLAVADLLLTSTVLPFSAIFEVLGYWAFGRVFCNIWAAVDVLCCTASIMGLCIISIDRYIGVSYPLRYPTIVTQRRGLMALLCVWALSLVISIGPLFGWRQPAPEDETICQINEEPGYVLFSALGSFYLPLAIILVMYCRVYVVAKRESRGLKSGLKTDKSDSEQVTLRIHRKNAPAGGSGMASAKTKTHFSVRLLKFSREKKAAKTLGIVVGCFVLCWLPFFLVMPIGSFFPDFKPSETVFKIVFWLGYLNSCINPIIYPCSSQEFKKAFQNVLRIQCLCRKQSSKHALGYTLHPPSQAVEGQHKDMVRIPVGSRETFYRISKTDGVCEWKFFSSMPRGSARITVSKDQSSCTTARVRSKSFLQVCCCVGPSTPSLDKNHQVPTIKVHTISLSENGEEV
Procedure: The intrinsic activity at α1A-ARs of the selected compounds was assessed by fluorescence detection (Invitrogen, Thermo Fisher Scientific, Carlsbad, CA, USA) of β-lactamase reporter genes using a FRET-enabled substrate. […] Intrinsic activity assay was performed according to the manufacturer of the assay kit (Invitrogen, Thermo Fisher Scientific corporation, Carlsbad, CA, USA). The cells were harvested and suspended in Assay Medium to a density of 312,500 cells/mL. Of the cell suspension, 32 µL per well was added to the Test Compound wells, the Unstimulated Control wells, and Stimulated Control wells and incubated per 16–24 h. […] Then, both the agonist and the antagonist plate were incubated in a humidified 37 °C/5% CO2 incubator for 5 h. After the incubation 8 µL of LiveBLAzer™-FRET B/G Substrate Mixture (CCF4-AM, Thermo Fisher Scientific corporation) was loaded cells in the absence of direct strong lighting, covered, and incubated at room temperature for 2 h.

[1] = test system: normotensive anaesthetized rats; assay: Effect on blood pressure after single i.v. administration in normotensive anaesthetized rats; type: in vivo, rat; settings: 2 mg/kg i.v.
Procedure: The experiments were performed to our previously reported method.
Identified compounds 9 and 10 with favorable α1B/α1D profile and acceptable metabolic stability were selected for in vivo tests to evaluate their influence on blood pressure. Hypotensive activity was determined after one time i.v. administration to normotensive anaesthetized rats at single doses of 2 mg/kg according to our previously reported method.
The experiments were carried out on male Wistar rats (body weight 200–250 g). The animals were housed in pairs in plastic cages in constant-temperature facilities exposed to a 12:12 h light/dark cycle; water and food were available ad libitum. Experimental groups consisted of 6 animals each. All experiments were conducted in accordance with the NIH Guide for Care and Use of Laboratory Animals and were approved by the Animal Use and Care Committee of the Jagiellonian University (2012, Kraków, Poland).
The normotensive rats were anesthetized with thiopental (70 mg/kg) by i.p. injection. The left carotid artery was cannulated with polyethylene tubing filled with heparin solution in saline to facilitate pressure measurements using PowerLab Apparatus (ADInstruments, Sydney, Australia). Blood pressure was measured: before administration of the compounds—time 0 min (control pressure), and 60 min thereafter. For each compound, studies were performed in the dose of 2 mg/kg b.w. Compounds were dissolved in water and administered intravenously. Initial blood pressure before administration of the tested compounds in all groups was similar.
Statistical calculations were carried out with the GraphPadPrism 6 program (GraphPad Software). Results are given as the arithmetic means with standard deviation (SD). The statistical significance was calculated using a one-way ANOVA and posthoc Bonfferoni Test in comparison to 0.9% NaCl. Differences were considered statistically significant at: * p ≤ 0.05, ** p ≤ 0.01, *** p ≤ 0.001.

α1B-ARs = molecular target: T2, α1B-ARs (Homo sapiens, UniProt P35368); assay: Intrinsic activity at α1B-ARs, aequorin calcium mobilization luminescence; type: cell-based; design: key to α1B Profile: ANT—antagonist; AGO—agonist; settings: for pIC50: antagonist mode, three independent experiments; for α1B Profile: functional profile
T2 sequence (P35368 1-520): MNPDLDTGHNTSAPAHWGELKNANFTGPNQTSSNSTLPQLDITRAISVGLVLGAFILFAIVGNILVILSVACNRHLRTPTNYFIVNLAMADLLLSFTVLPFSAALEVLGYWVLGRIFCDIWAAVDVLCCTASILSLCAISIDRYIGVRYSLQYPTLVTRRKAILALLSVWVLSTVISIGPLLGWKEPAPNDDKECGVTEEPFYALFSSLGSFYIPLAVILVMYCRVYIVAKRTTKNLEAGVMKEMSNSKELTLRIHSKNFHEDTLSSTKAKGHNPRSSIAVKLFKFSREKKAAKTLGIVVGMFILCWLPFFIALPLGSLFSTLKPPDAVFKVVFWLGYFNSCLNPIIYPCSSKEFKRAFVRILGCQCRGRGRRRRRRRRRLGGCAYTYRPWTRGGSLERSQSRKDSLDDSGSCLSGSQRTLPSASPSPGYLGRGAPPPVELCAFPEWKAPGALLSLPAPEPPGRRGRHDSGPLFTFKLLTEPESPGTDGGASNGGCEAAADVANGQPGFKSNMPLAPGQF
Procedure: The intrinsic activity at α1A-ARs of the selected compounds was assessed by fluorescence detection (Invitrogen, Thermo Fisher Scientific, Carlsbad, CA, USA) of β-lactamase reporter genes using a FRET-enabled substrate. The intrinsic activity at α1B-ARs and α1D-ARs was determined by luminescence detection (PerkinElmer, Zaventem, Belgium) of calcium mobilization using the recombinant-expressed jellyfish photoprotein (Aequorin).
Intrinsic activity assay to α1B- and α1D-ARs was performed according to the manufacturer of the ready-to-use cells with stable expression of the α1B-adrenoreceptors and α1D-adrenoreceptors, respectively (PerkinElmer, Zaventem, Belgium). For measurement, cells (frozen, ready to use) were thawed and resuspended in 10 mL of assay buffer containing 5 µM coelenterazine h. This cells suspension was put in a 10 mL Falcon tube, fixed onto a rotating heel, and incubated for overnight at rt in the dark (8 rpm; 45° angle). Cells were diluted with Assay Buffer to 5000 cells/20 µL. Agonistic ligands 2 × (50 µL/well), diluted in Assay Buffer, were prepared in ½ white polystyrene area plates, and the cell suspension was dispensed in 50 µL volume on the ligands using the injector. The light emitted was recorded for 20 s. Cells with antagonist were incubated for 15 min at room temperature. Thereafter, 50 µL of agonist (3 × EC80 final concentration) was injected into the mix of cells and antagonist and the light emitted was recorded for 20 s.

Row | pIC50 (α1A-ARs) | pEC50 (α1A-ARs; antagonist, in abstract) | α1A Profile (α1A-ARs) | functional preference over the α1B subtype (α1A-ARs; α1B vs α1A functional potency) [fold] | pIC50 (α1B-ARs) | α1B Profile (α1B-ARs) | SMILES | effect on blood pressure, in words (significance vs 0.9% NaCl) [1] | decrease of DBP ([1]; over 60 min)
1 | 9.10 | 9.10 | ANT | 5 | 8.41 | ANT | O=S(=O)(NCC1CCN(CCOc2ccccc2OCC(F)(F)F)CC1)c1cccc(Cl)c1F [Compound 9, 3-Chloro-2-fluoro-N-[(1-{2-[(2,2,2-trifluoroethoxy)phenoxy]ethyl}piperidin-4-yl)methyl]benzenesulfonamide] | did not decrease systolic and diastolic blood pressure; also recorded: insignificantly | 
2 | 8.68 |  | ANT |  | 8.00 | ANT | O=S(=O)(NCC1CCN(CCOc2ccccc2OCC(F)(F)F)CC1)c1cc(Cl)ccc1F [Compound 10, 5-Chloro-2-fluoro-N-[(1-{2-[(2,2,2-trifluoroethoxy)phenoxy]ethyl}piperidin-4-yl)methyl]benzenesulfonamide] | statistically significant drop in systolic blood pressure was observed from 30 min after administration | 
3 |  |  | ANT |  | 8.89 | ANT | CCOc1ccccc1OCCN[C@H](C)Cc1ccc(OC)c(S(N)(=O)=O)c1 [tamsulosin, reference compound] | significantly through whole period of observation | 13.3–16.6 mmHg
